The text below walks through data of patent US7625912B2, “Mitotic kinesin inhibitors” (Merck & Co. Inc, priority 2003, dated 2009).

The target in this test is T1, human KSP motor domain (KSP(367H)) (Homo sapiens, UniProt P52732).
T1 construct: were used to amplify the motor domain and the neck linker region; made in house; host or cells: E. coli BL21 (DE3), pRSETa vector
T1 sequence (P52732 18-359 limits assumed): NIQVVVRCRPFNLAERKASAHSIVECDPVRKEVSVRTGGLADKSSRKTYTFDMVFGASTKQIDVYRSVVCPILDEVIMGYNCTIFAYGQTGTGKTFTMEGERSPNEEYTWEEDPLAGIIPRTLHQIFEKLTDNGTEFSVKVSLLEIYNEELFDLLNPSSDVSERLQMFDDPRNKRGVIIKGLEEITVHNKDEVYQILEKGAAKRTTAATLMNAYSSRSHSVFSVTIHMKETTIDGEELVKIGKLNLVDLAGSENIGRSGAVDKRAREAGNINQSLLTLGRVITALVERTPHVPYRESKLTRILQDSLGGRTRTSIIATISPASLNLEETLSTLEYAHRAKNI
The test is described as follows: Kinesin ATPase in vitro assay. As to conditions: microtubules, 1 mM ATP, 23° C.; free phosphate by quinaldine red/ammonium molybdate, absorbance 540 nm. The class given is biochemical. From the text:
I. Kinesin ATPase In Vitro Assay
Cloning and Expression of Human Poly-Histidine Tagged KSP Motor Domain (KSP(367H))
Plasmids for the expression of the human KSP motor domain construct were cloned by PCR using a pBluescript full length human KSP construct (Blangy et al., Cell, vol. 83, pp 1159-1169, 1995) as a template. The N-terminal primer 5′-[…] (SEQ.ID.NO.: 1) and the C-terminal primer 5′-[…] […] (SEQ.ID.NO.: 2) were used to amplify the motor domain and the neck linker region. The PCR products were digested with AseI and XhoI, ligated into the NdeL/XhoI digestion product of pRSETa (Invitrogen) and transformed into E. coli BL21 (DE3).
Cells were grown at 37° C. to an OD600 of 0.5. […]
The kinesin motor domain is incubated with microtubules, 1 mM ATP (1:1 MgCl2: Na-ATP), and compound at 23° C. in buffer containing 80 mM K-HEPES (pH 7.0), 1 mM EGTA, 1 mM DTT, 1 mM MgCl2, and 50 mM KCl. […] Free phosphate from the ATP hydrolysis reaction is measured via a quinaldine red/ammonium molybdate assay by adding 150 μl of quench C buffer containing a 2:1 ratio of quench A:quench B. Quench A contains 0.1 mg/ml quinaldine red and 0.14% polyvinyl alcohol; quench B contains 12.3 mM ammonium molybdate tetrahydrate in 1.15 M sulfuric acid. The reaction is incubated for 10 minutes at 23° C., and the absorbance of the phospho-molybdate complex is measured at 540 nm.

What is called IC50 is the concentration that inhibits the measured activity by half. Higher therefore signals weaker potency.

Each structure is given as a SMILES string.

`Cc1ccc(-n2c(-c3ccccc3Br)nccc2=O)cc1F` [1-4, 2-(2-bromophenyl)-3-(3-fluoro-4-methylphenyl)pyrimidin-4(3H)-one] came in with an IC50 of at most 50 µM.
